# Source: article PMC4658182, “The Synthetic Antimicrobial Peptide 19-2.5 Interacts with Heparanase and Heparan Sulfate in Murine and Human Sepsis” (PLoS ONE, 2015)
# Key:
# [1] = cited from earlier work
# Description: Sepsis is a common and life-threatening disease especially in medical and surgical intensive care patients with mortality rates up to 60% [1]. It is characterized by a systemic inflammatory response to infection triggered by both pathogen-associated molecular patterns (PAMPs) as well as endogenous danger-associated molecular patterns (DAMPs). Here, heparan sulfate and the enzyme heparanase play key roles. Heparan sulfates are linear polysaccharides composed of repeating disaccharide subunits, which are D-glucosamine and D-glucuronic acid in their unmodified form. They are attached ...
# [2] = Isothermal titration calorimetry, binding to HS-fragments; conditions: vs peptide 19–2.5 (Table 2)
# Description: Isothermal titration calorimetry (ITC) experiments were performed as previously described. Briefly, the binding of peptide 19–2.5 to heparanase or HS-fragments was recorded by measuring the enthalpy change of the reaction at 37°C. For this, a total of 100 μg/ml heparanase (R&D Systems Europe Ltd., Abingdon, United Kingdom) and 200 μg/ml HS-fragments (H7640 Sigma-Aldrich, St. Louis, MO, USA) were dispersed into the calorimetric cell, and 2 mM peptide 19–2.5 was titrated to this dispersion stepwise in 3 μl portions. After exploring experiments, the concentration of HS was 100 μg/ml titrated with 1.5 μl of peptide 19–2.5 (2 mM) 20 times at 37°C.
# Fig 5 Isothermal titration calorimetry (ITC). For the ITC experiments, 2 mM peptide 19–2.5 was titrated to this dispersion stepwise in 3 μl portions into (A) 200 μg/ml heparan sulfate-fragments (HS) and (B) 100 μg/ml heparanase (Hep). In each titration, the resulting heat signals P were recorded (peak downwards are exothermic, peaks upwards endothermic reactions) against time (min) and presented in the top parts of Fig 5A and 5B. The integrated enthalpy changes ΔH versus [peptide]:[HS-fragments] (A) and [peptide]:[heparanase] (B) concentration ratios of the single titrations are illustrated in the bottom parts of Fig 5A and 5B.
# heparanase = heparanase (UniProt Q9Y251); assay: ITC; 2 mM peptide 19-2.5 titrated stepwise in 3 ul portions into 100 ug/ml heparanase in the calorimetric cell, 37 °C
# heparanase, sequence (Q9Y251 36-543): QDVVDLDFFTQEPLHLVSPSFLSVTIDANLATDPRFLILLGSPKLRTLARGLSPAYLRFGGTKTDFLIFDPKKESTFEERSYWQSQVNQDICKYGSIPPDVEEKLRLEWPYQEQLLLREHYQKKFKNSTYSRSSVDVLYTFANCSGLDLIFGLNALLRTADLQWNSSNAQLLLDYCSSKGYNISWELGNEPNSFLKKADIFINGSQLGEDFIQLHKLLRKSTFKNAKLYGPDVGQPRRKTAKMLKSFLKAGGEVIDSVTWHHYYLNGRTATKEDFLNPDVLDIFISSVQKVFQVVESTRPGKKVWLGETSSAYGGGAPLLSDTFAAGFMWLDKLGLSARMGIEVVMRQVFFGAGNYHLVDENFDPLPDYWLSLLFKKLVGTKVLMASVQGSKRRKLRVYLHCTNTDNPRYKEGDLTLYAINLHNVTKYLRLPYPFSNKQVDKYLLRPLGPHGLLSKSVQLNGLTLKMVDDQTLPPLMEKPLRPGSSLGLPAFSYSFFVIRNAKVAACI
molecule,measurement,setting,value
LL-37: naturally occurring antimicrobial cathelicidin peptide LL-37,neutralization of pro-inflammatory action of PAMPs and DAMPs,[1],neutralizes the pro-inflammatory action of PAMPs and DAMPs
same,toxicity,[1]; limits therapeutic use,intrinsic toxicity
"GCKKYRRFRWKFKGK [peptide 19–2.5gek, peptide variant with the hydrophobic C-terminal of the peptide, FWFWG, removed]",binding constant to HS-fragments on removal of C-terminal FWFWG,[2],dramatically decreases
GCKKYRRFRWKFKGKFWFWG [synthetic antimicrobial peptide 19-2.5],dH (at the beginning of the titration),heparanase,-5.98 kcal/mol
